Measured values taken from the supplement of paper PMC10331698.
± gives the standard deviation of the averaged measurements.

Columns and labels:
Assay in all cases: level (log10 ratio to DMSO vehicle control); higher = higher biomarker level / cell amount than vehicle control
Conditions in all cases: in DMSO
Perfluorobutanoic acid = compound: O=C(O)C(F)(F)C(F)(F)C(F)(F)F [Perfluorobutanoic acid]
Method: (§1)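 BioMAP Diversity Plus panel of 12 human primary cell co-culture systems (3C, 4H, LPS, SAg, BT, BF4T, BE3C, CASM3C, HDF3CGF, KF3CT, MyoF, Mphg). Compounds were added 1 h before stimulation and left for 24 h (MyoF 48 h; BT 72 h for soluble read-outs or 6 d for IgG). Biomarkers were read by ELISA, cytotoxicity by SRB, PBMC viability and proliferation by Alamar Blue. Each well value was divided by the mean of 8 DMSO control wells on the same plate and log10 transformed; duplicate blinded samples were tested at 4 concentrations.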

[1] = compound: O=C(O)C(F)(F)OC(F)(F)C(F)(F)OC(F)(F)C(=O)O [Perfluoro-3,6-dioxaoctane-1,8-dioic acid]
Method: as §1

[2] = compound: OCC(F)(F)OC(F)(F)C(F)(F)OC(F)(F)CO [1H,1H,8H,8H-Perfluoro-3,6-dioxaoctane-1,8-diol]
Method: as §1

Perfluoropropanoic acid = compound: O=C(O)C(F)(F)C(F)(F)F [Perfluoropropanoic acid]
Method: as §1

Perfluoro-1-iodohexane = compound: FC(F)(F)C(F)(F)C(F)(F)C(F)(F)C(F)(F)C(F)(F)I [Perfluoro-1-iodohexane]
Method: as §1

[3] = compound: O=C(O)C(F)(F)C(F)(F)OC(F)(F)F [Perfluoro-3-methoxypropanoic acid]
Method: as §1

[4] = compound: OCCC(F)(F)C(F)(F)C(F)(F)C(F)(F)C(F)(F)C(F)(F)F [6:2 Fluorotelomer alcohol]
Method: as §1

| Test System | level (log10) (Perfluorobutanoic acid; 6700 nM) | level (log10) (Perfluorobutanoic acid; 20000 nM) | level (log10) (Perfluorobutanoic acid; 60000 nM) | level (log10) ([1]; 6700 nM) | level (log10) ([1]; 20000 nM) | level (log10) ([1]; 60000 nM) | level (log10) ([2]; 6700 nM) | level (log10) ([2]; 20000 nM) | level (log10) ([2]; 60000 nM) | level (log10) (Perfluoropropanoic acid; 6700 nM) | level (log10) (Perfluoropropanoic acid; 20000 nM) | level (log10) (Perfluoropropanoic acid; 60000 nM) | level (log10) (Perfluoro-1-iodohexane; 6700 nM) | level (log10) (Perfluoro-1-iodohexane; 20000 nM) | level (log10) (Perfluoro-1-iodohexane; 60000 nM) | level (log10) ([3]; 6700 nM) | level (log10) ([3]; 20000 nM) | level (log10) ([3]; 60000 nM) | level (log10) ([4]; 6700 nM) | level (log10) ([4]; 20000 nM) |
| --- | --- | --- | --- | --- | --- | --- | --- | --- | --- | --- | --- | --- | --- | --- | --- | --- | --- | --- | --- | --- |
| MyoF:MMP-1 | -0.027 ± 0.0028 | -0.0135 ± 0.016 | -0.0005 ± 0.04 | -0.0065 ± 0.0092 | -0.0155 ± 0.019 | 0.0225 ± 0.067 | -0.022 ± 0.028 | -0.0115 ± 0.011 | 0.024 ± 0.058 | -0.0675 ± 0.11 | -0.0565 ± 0.06 | 0.05 ± 0.095 | 0.036 ± 0.0071 | 0.451 ± 0.19 | 0.661 ± 0.0028 | -0.0135 ± 0.0064 | 0.0055 ± 0.011 | 0.0105 ± 0.043 | 0 ± 0.016 | -0.0035 ± 0.005 |
| CASM3C:CD142/Tissue Factor | -0.002 | 0.007 ± 0.0099 | -0.0505 ± 0.00071 | -0.012 ± 0.013 | -0.0275 ± 0.022 | 0.0215 ± 0.053 | -0.014 ± 0.0099 | -0.013 ± 0.023 | 0.0165 ± 0.0064 | -0.0995 ± 0.039 | -0.0395 ± 0.03 | -0.0085 ± 0.039 | -0.009 ± 0.013 | -0.018 ± 0.0042 | -0.031 | -0.022 ± 0.027 | -0.0145 ± 0.04 | -0.0025 ± 0.037 | 0.004 ± 0.014 | 0.0075 ± 0.0064 |
| CASM3C:M-CSF | -0.0095 ± 0.0064 | -0.0205 ± 0.013 | 0.0275 ± 0.063 | 0.0205 ± 0.016 | -0.0025 ± 0.0035 | 0.0385 ± 0.011 | -0.014 ± 0.0014 | -0.0105 ± 0.005 | 0.0115 ± 0.0092 | -0.0265 ± 0.16 | 0.0055 ± 0.0092 | 0.034 ± 0.065 | -0.0125 ± 0.025 | 0.0055 ± 0.032 | 0.0085 ± 0.043 | -0.001 ± 0.011 | -0.001 ± 0.03 | 0.031 ± 0.0071 | -0.018 ± 0.0014 | 0.019 ± 0.016 |
| KF3CT:TIMP-2 | -0.005 ± 0.014 | -0.009 ± 0.0071 | -0.002 ± 0.0014 | -0.0075 ± 0.042 | -0.0015 ± 0.04 | 0.0055 ± 0.011 | 0.0025 ± 0.005 | 0.005 ± 0.0014 | 0.0065 ± 0.0092 | 0.014 ± 0.062 | -0.0115 ± 0.0092 | 0.0275 ± 0.012 | 0.0015 ± 0.013 | 0.0135 ± 0.019 | 0.0035 ± 0.011 | -0.0045 ± 0.025 | 0.0075 ± 0.035 | 0.004 ± 0.016 | 0.0005 ± 0.016 | 0.0015 ± 0.015 |
| CASM3C:CCL2/MCP-1 | -0.0125 ± 0.0078 | -0.025 ± 0.027 | -0.001 ± 0.041 | -0.033 ± 0.037 | -0.034 ± 0.027 | 0.021 ± 0.02 | -0.026 ± 0.041 | -0.022 ± 0.017 | -0.017 ± 0.013 | 0.0025 ± 0.012 | -0.0025 ± 0.019 | 0.0055 ± 0.00071 | 0.006 ± 0.0099 | -0.0085 ± 0.019 | 0.0015 ± 0.049 | -0.0175 ± 0.032 | -0.0215 ± 0.03 | 0.017 ± 0.0099 | -0.0205 ± 0.00071 | -0.019 ± 0.0028 |
| CASM3C:CD141/Thrombomodulin | 0.0145 ± 0.021 | 0.022 ± 0.0028 | -0.0045 ± 0.037 | 0.0045 ± 0.018 | 0.002 ± 0.0028 | 0.017 ± 0.0071 | -0.0045 ± 0.0021 | 0.0035 ± 0.005 | 0.001 ± 0.016 | -0.05 ± 0.031 | 0.024 ± 0.0099 | 0.0245 ± 0.066 | 0.0055 ± 0.015 | -0.006 ± 0.0028 | -0.004 ± 0.0028 | -0.003 ± 0.0028 | -0.014 ± 0.0099 | 0.021 ± 0.04 | 0.0235 ± 0.0092 | 0.005 ± 0.023 |
| HDF3CGF:SRB | 0.0125 ± 0.0064 | -0.007 ± 0.0028 | 0.002 ± 0.0071 | 0.009 ± 0.041 | -0.0035 ± 0.015 | -0.0125 ± 0.012 | -0.031 ± 0.0057 | 0.0405 ± 0.033 | -0.0505 ± 0.016 | -0.003 ± 0.0085 | -0.0175 ± 0.011 | -0.0335 ± 0.032 | 0.021 ± 0.035 | 0.0085 ± 0.018 | -0.0085 ± 0.067 | -0.0005 ± 0.042 | 0.014 ± 0.0071 | 0 ± 0.023 | -0.0245 ± 0.073 | 0.008 ± 0.054 |
